Reference: patent US11040027B2, “Protein kinase inhibitors for promoting liver regeneration or reducing or preventing hepatocyte death” (HEPAREGENIX GMBH, priority 2017, dated 2021)

Experiments:
BRaf = BRaf (Homo sapiens, UniProt P15056); assay: KINOMEscan competition binding assay, selectivity BRaf versus MKK4; conditions: Test conc. 0.1 μM; ratio of percent of control; N/E* per footnote
Description: The assay was performed by combining three components: DNA-tagged kinase; immobilized ligand; and a test compound. The ability of the test compound to compete with the immobilized ligand was measured via quantitative PCR of the DNA tag. The technology is described in detail in Fabian, M. A. et al. A small molecule-kinase interaction map for clinical kinase inhibitors. Nat. […] Nat.
The test compounds were provided as 10 mM stock solutions. The test solutions at indicated final concentrations were prepared at DiscoverX.

MKK4 active = molecular target: T1, MKK4 active (Homo sapiens, UniProt P45985); assay: Radiometric protein kinase assay, MKK4 active; type: biochemical; conditions: substrate JNK1 KRKR, ATP 0.2 μM, read-out: MKK4 (potency derived from IC50-values)
T1 construct: purchased ProQinase 0948-0000-1
T1 sequence (P45985 1-399): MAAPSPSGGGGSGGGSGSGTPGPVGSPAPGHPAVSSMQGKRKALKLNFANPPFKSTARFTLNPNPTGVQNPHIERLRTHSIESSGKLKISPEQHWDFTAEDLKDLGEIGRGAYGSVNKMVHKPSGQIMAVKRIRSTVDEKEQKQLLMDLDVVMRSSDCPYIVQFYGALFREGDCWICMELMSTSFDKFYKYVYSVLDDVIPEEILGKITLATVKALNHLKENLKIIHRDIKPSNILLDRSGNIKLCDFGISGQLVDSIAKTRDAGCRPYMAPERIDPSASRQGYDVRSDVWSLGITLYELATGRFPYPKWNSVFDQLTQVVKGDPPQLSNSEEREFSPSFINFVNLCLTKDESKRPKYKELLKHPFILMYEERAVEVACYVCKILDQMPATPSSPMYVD
Description: (§1) A radiometric protein kinase assay was used for measuring the kinase activity of the respective protein kinases. All kinase assays were performed in 96-well polypropylene plates. After the reactions were stopped, the assay mixtures were transferred to 96-well MSFC filter-plates (Millipore). The reaction mix was passed through the filter membrane by aspiration, the membrane was washed 3 times with 150 mM H3PO4, once with ethanol, dried and liquid scintillation cocktail was added. Radioactivity was determined by counting of the samples in a Microbeta multiwell scintillation counter (Wallac).
(§2) b) Single Kinases • 20 μl standard assay buffer • 5 μl compound in 10% DMSO • 20 μl enzyme-substrate mix • 10 μl of substrate solution
(§3) The reaction cocktails were incubated at 30° C. for 30 minutes.

MEKK2 = molecular target: T2, MEKK2 (Homo sapiens, UniProt Q9Y2U5); assay: Radiometric protein kinase assay, MEKK2; type: biochemical; conditions: substrate Casein, ATP 0.2 μM; read-out: MEKK2 (potency derived from IC50-values)
T2 construct: purchased ProQinase 0583-0000-1
T2 sequence (Q9Y2U5 1-619): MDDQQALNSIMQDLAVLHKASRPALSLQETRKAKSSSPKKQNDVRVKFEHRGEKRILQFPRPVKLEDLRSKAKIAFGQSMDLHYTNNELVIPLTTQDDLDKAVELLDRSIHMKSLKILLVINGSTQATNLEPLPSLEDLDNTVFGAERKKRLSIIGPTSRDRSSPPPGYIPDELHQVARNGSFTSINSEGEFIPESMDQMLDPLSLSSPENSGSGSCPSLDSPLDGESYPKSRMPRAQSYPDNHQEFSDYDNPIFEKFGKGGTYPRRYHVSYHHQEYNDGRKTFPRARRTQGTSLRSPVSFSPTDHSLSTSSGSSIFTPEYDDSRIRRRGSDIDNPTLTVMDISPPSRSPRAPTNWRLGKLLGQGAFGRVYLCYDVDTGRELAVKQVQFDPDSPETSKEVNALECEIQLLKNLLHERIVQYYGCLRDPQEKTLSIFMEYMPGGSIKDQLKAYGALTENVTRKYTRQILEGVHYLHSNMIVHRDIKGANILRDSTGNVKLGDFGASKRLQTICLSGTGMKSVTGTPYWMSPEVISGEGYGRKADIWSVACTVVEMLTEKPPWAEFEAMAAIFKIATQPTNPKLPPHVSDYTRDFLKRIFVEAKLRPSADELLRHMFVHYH
Description: as §1, §2, §3

MKK4 = molecular target: T3, MKK4 (Homo sapiens, UniProt P45985); assay: KINOMEscan competition binding assay, MKK4; conditions: read-out: Potency MKK4 (derived from % of control values, PoC)
T3 sequence (P45985 84-399): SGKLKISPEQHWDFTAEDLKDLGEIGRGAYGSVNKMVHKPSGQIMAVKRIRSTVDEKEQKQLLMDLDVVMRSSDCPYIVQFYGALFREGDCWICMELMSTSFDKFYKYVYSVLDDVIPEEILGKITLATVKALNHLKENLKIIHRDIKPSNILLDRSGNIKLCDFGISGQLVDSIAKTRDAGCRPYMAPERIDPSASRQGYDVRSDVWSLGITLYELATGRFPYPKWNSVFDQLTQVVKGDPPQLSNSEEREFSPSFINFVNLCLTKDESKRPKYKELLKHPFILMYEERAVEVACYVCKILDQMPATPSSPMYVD

JNK1 = JNK1 (Homo sapiens, UniProt P45983); assay: KINOMEscan competition binding assay, selectivity JNK1 versus MKK4; conditions: ratio of percent of control
Description: (§4) For investigation of the affinity to MKK4, MKK7 and JNK1, the kinases were produced in HEK-293 cells and subsequently tagged with DNA for qPCR detection. […] The liganded beads were blocked with excess biotin and washed with blocking buffer (SEABLOCK™ (Pierce), 1% BSA, 0.05% TWEEN®20, 1 mM DTT) to remove unbound ligand and to reduce nonspecific binding. […] All reactions were performed in polystyrene 96-well plates in a final volume of 0.135 mL. […] The kinase concentration in the eluates was measured by qPCR.

MKK7 = molecular target: T4, MKK7 (Homo sapiens, UniProt O14733); assay: KINOMEscan competition binding assay, selectivity MKK7 versus MKK4; conditions: Test conc. 0.1 μM; ratio of percent of control; N/E* per footnote
T4 sequence (O14733 1-419): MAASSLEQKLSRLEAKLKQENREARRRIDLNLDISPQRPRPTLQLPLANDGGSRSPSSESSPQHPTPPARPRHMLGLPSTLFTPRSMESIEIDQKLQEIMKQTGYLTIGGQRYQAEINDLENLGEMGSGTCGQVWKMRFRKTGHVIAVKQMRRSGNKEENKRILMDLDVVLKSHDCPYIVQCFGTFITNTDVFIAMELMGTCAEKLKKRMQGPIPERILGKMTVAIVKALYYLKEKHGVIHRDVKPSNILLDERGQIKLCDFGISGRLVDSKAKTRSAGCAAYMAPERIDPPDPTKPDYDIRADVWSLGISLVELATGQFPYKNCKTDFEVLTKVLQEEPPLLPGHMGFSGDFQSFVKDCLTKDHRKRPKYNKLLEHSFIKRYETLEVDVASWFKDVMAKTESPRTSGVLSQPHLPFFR
Description: as §4

[1] = Test conc 0.1 μM, N/E* = PoC for JNK1 = 100

Sequence of JNK1 (P45983 1-384 isoform P45983-2): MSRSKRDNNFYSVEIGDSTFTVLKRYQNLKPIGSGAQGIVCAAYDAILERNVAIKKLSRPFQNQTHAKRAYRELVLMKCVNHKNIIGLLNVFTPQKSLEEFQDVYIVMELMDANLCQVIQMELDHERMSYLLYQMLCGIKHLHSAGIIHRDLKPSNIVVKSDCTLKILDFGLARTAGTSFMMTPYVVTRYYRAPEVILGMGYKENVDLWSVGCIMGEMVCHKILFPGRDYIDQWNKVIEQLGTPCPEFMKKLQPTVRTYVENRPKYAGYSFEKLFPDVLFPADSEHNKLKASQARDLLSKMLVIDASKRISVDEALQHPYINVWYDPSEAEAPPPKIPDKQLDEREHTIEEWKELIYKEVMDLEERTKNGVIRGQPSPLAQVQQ
Sequence of BRaf (P15056 whole entry): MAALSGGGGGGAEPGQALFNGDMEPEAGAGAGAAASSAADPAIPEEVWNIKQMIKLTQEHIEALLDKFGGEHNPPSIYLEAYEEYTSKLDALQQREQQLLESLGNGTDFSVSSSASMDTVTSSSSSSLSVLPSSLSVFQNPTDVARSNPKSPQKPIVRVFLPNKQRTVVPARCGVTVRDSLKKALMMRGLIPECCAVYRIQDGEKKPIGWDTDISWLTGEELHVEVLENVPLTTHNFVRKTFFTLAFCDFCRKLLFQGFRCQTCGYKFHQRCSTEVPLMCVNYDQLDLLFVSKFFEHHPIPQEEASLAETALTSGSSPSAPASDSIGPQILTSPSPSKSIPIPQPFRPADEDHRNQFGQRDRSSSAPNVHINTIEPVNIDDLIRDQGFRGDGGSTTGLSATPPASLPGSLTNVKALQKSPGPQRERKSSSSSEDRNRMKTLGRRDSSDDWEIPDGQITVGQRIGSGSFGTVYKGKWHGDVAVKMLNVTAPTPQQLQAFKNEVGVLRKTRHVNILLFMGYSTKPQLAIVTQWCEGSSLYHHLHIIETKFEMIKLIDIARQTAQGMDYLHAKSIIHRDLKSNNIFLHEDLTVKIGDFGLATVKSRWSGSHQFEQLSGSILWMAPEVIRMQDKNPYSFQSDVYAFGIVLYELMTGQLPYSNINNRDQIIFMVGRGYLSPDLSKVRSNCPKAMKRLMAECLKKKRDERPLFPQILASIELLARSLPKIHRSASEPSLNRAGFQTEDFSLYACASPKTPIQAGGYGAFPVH

Row | SMILES | Selectivity BRaf/MKK4 (BRaf) | IC50 (MKK4 active) | IC50 (MEKK2) | remaining binding at 0.1 µM (MKK4) | Selectivity JNK1/MKK4 (JNK1; [1]) | Selectivity MKK7/MKK4 (MKK7) | Selectivity JNK1/MKK4 (JNK1; Test conc 10 μM)
1 | COc1ccc(-c2cnc3[nH]cc(C(=O)c4cccc(NS(C)(=O)=O)c4F)c3c2)c(Cl)c1 [Example 46] | N/E* (PoC for JNK1 = 100) | < 0.5 µM | 1 to 10 µM | < 10% | N/E* (PoC for JNK1 = 100) | 10 | 
2 | CCCCS(=O)(=O)Nc1cccc(C(=O)c2c[nH]c3ncc(-c4ccc5c(c4)OCO5)cc23)c1F [Example 53] | 56 | < 0.5 µM | 1 to 10 µM | < 10% | N/E* (PoC for JNK1 = 100) | N/E* (PoC for JNK1 = 100) | 
3 | CS(=O)(=O)Nc1cccc(C(=O)c2c[nH]c3ncc(-c4cc5c(cc4Cl)OCCO5)cc23)c1F [Example 48] | N/E* (PoC for JNK1 = 100) | 1 to 10 µM | > 10 µM | 10 to 30% | 8.4 | 8.7 | 
4 | CCCCS(=O)(=O)Nc1cccc(C(=O)c2c[nH]c3ncc(-c4cc5c(cc4Cl)OCCO5)cc23)c1F [Example 56] | N/E* (PoC for JNK1 = 100) | < 0.5 µM | > 10 µM | < 10% | 24 | N/E* (PoC for JNK1 = 100) | 
5 | CCCCS(=O)(=O)Nc1cccc(C(=O)c2c[nH]c3ncc(-c4ccc(Cl)cc4)cc23)c1F [Example 50] | 7.0 | < 0.5 µM | > 10 µM | 10 to 30% | N/E* (PoC for JNK1 = 100) | N/E* (PoC for JNK1 = 100) | 
6 | CCCS(=O)(=O)Nc1ccc(F)c(C(=O)c2c[nH]c3ncc(-c4ccc5c(c4)OCO5)cc23)c1F [Example 10, N-(3-(5-(Benzo[d][1,3]dioxol-5-yl)-1H-pyrrolo[2,3-b]pyridine-3-carbonyl)-2,4-difluorophenyl)propane-1-sulfonamide] | 4.2 | > 10 µM | > 10 µM | < 10% |  | 270 | >100
7 | CCCS(=O)(=O)Nc1ccc(F)c(C(=O)c2c[nH]c3ncc(-c4ccc(F)cc4C)cc23)c1F [Example 12, N-(2,4-Difluoro-3-(5-(4-fluoro-2-methylphenyl)-1H-pyrrolo[2,3-b]pyridine-3-carbonyl)phenyl)propane-1-sulfonamide] | 7.8 | 0.5 to 1 µM | > 10 µM | 10 to 30% |  | 10 | >100
8 | Cc1cc(F)ccc1-c1cnc2[nH]cc(C(=O)c3cccc(NS(C)(=O)=O)c3F)c2c1 [Example 37, N-(2-Fluoro-3-(5-(4-fluoro-2-methylphenyl)-1H-pyrrolo[2,3-b]pyridine-3-carbonyl)phenyl)methanesulfonamide] | 13.2 | 0.5 to 1 µM | > 10 µM | < 10% | N/E* (PoC for JNK1 = 100) | 14.1 | 
9 | CCCCS(=O)(=O)Nc1cccc(C(=O)c2c[nH]c3ncc(-c4ccc5c(c4)OCCO5)cc23)c1F [Example 54] | 36 | < 0.5 µM | 1 to 10 µM | < 10% | 55 | 61 | 

Next, values leading:

Row | Selectivity BRaf/MKK4 (BRaf) | IC50 (MKK4 active) | IC50 (MEKK2) | remaining binding at 0.1 µM (MKK4) | Selectivity JNK1/MKK4 (JNK1; [1]) | Selectivity MKK7/MKK4 (MKK7) | Selectivity JNK1/MKK4 (JNK1; Test conc 10 μM) | SMILES
10 | 5.3 | < 0.5 µM | 1 to 10 µM | 10 to 30% | N/E* (PoC for JNK1 = 100) | 5.3 |  | CS(=O)(=O)Nc1cccc(C(=O)c2c[nH]c3ncc(-c4ccccc4Cl)cc23)c1F [Example 38, N-(3-(5-(2-Chlorophenyl)-1H-pyrrolo[2,3-b]pyridine-3-carbonyl)-2-fluorophenyl) methanesulfonamide]
11 | N/E* (PoC for JNK1 = 100) | < 0.5 µM | > 10 µM | < 10% | 17 | N/E* (PoC for JNK1 = 100) |  | CCCCS(=O)(=O)Nc1cccc(C(=O)c2c[nH]c3ncc(-c4ccc(OC)cc4Cl)cc23)c1F [Example 52]
12 | 0.9 | 0.5 to 1 µM | > 10 µM | > 30% |  | 3.0 | >100 | CCCS(=O)(=O)Nc1ccc(F)c(C(=O)c2c[nH]c3ncc(-c4ccc(C(C)C)cc4)cc23)c1F [Example 7, N-(2,4-Difluoro-3-(5-(4-isopropylphenyl)-1H-pyrrolo[2,3-b]pyridine-3-carbonyl)phenyl)propane-1-sulfonamide]
13 | N/E* (PoC for JNK1 = 100) | < 0.5 µM | 1 to 10 µM | < 10% | 10 | 9.7 |  | CS(=O)(=O)Nc1cccc(C(=O)c2c[nH]c3ncc(-c4cc5c(cc4Cl)OCO5)cc23)c1F [Example 47]
14 | 18.8 | > 10 µM | > 10 µM | < 10% | N/E* (PoC for JNK1 = 100) | 19.6 |  | CS(=O)(=O)Nc1cccc(C(=O)c2c[nH]c3ncc(-c4ccc5c(c4)OCCO5)cc23)c1F [Example 36, N-(3-(5-(2,3-Dihydrobenzo[b][1,4]dioxin-6-yl)-1H-pyrrolo[2,3-b]pyridine-3-carbonyl)-2-fluorophenyl)methanesulfonamide]
15 | N/E* (PoC for JNK1 = 100) | 1 to 10 µM | > 10 µM | > 30% | N/E* (PoC for JNK1 = 100) | N/E* (PoC for JNK1 = 100) |  | CC(C)c1ccc(-c2cnc3[nH]cc(C(=O)c4cccc(NS(C)(=O)=O)c4F)c3c2)cc1 [Example 45]
